Experimental data: patent US20230158025A1 (UNIVERSITY OF UTAH RESEARCH FOUNDATION, priority 2020, published 2023)
Read-outs that look alike come from different tables or passages of the source.

Key:
recombinant human GALK1 = recombinant human GALK1 (Homo sapiens, UniProt P51570); assay: hGALK1 biochemical activity assay (Kinase-Glo Plus, ATP depletion); settings: recombinant human GALK1, Kinase-Glo Plus ATP depletion; read-out: hGALK
Summary of the method: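 Recombinant human or mouse GALK1 (5 nM, with 100 μM galactose, in the added enzyme solution) was run with ATP (35 μM in the substrate solution) in HEPES pH 8.0 buffer. Compounds were tested at 11 1/3-step concentrations from 57.4 μM to 0.97 nM. After 1 h at room temperature, remaining ATP was read by Kinase-Glo Plus luminescence.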

recombinant mouse GALK1 = recombinant mouse GALK1 (Mus musculus, UniProt Q9R0N0); assay: mGALK1 biochemical activity assay (Kinase-Glo Plus, ATP depletion)
Summary of the method: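 Recombinant GALK1 (5 nM) with 100 μM galactose; GALK1 turnover read as ATP depletion by Kinase-Glo Plus luminescence. Reaction ran 1 h at room temperature before detection reagent was added.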

hGALK1m = target: T1, hGALK1m (Homo sapiens, UniProt P51570, E253A/K252A); assay: in vitro hGALK1 activity assay of the structure-based optimisation (Example 12, Tables 17-20); format: biochemical
T1 construct: made in house; host or cells: E. coli HMS174

[1] = rat
[2] = PAMPA
in vitro [3] = settings: rat, microsomes
in vitro [4] = settings: PAMPA, ADME P: PAMPA permeability (class)

T1 sequence (P51570 whole entry K252A/E253A): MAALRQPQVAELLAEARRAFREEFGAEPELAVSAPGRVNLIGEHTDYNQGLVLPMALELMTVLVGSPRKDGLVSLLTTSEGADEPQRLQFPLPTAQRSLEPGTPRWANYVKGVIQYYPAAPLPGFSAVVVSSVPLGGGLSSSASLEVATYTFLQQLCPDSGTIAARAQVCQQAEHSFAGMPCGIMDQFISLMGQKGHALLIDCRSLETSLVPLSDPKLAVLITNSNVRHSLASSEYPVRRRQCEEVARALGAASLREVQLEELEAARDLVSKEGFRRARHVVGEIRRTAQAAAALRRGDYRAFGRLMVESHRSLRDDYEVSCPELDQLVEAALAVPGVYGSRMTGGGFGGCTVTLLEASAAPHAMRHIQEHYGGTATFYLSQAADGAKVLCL
recombinant mouse GALK1, sequence (Q9R0N0 whole entry): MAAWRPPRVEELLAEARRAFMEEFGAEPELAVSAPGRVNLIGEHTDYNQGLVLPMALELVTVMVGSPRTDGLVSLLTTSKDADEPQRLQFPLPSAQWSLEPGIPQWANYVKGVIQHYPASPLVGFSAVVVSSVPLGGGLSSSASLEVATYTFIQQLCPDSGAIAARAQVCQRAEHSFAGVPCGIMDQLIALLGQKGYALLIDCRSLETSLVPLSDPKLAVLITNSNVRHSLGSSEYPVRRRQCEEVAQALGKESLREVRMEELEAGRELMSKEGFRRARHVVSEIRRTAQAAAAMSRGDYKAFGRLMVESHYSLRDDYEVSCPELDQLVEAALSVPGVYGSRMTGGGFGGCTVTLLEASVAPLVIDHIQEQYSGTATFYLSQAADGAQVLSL
recombinant human GALK1, sequence (P51570 whole entry): as the sequence (P51570 whole entry K252A/E253A) above, with A252K, A253E counted along it

Q: With `CC1=C(C(=O)Nc2cc(C(=O)O)ccn2)C(c2ccccc2Cl)N=C(Nc2nc3cc(Cl)ccc3o2)N1` (stereo not drawn) [Compound 9, 2-(2-((5-chlorobenzo[d]oxazol-2-yl)amino)-4-(2-chlorophenyl)-6-methyl-1,4-dihydropyrimidine-5-carboxamido)isonicotinic acid] as the compound, how does the IC50 (recombinant human GALK1) read?
A: 2.43 µM

Q: And the IC50 (recombinant mouse GALK1; Tables 2-15, 35 μM ATP, 100 μM galactose, 1 h, bracketed figure after some values is undefined and not reported, read-out: mGALK IC50)?
A: 6.11 µM

Q: What about the IC50 (recombinant mouse GALK1; recombinant mouse GALK1, Kinase-Glo Plus ATP depletion, read-out: mGALK) of the same compound?
A: 6.11 µM

Q: What about the Emax (hGALK1m; Tables 18-19, read-out: Max Response (%)) of the same compound?
A: 100%

Q: And the IC50 (hGALK1m; Tables 18-19 and text of Example 12)?
A: 1.7 µM

Q: What about the “Metab. Stabil. (m)” value [1] of the same compound?
A: >30 m

Q: What about the “Perm. (1 × 10^−6 cm/sec)” value [2] of the same compound?
A: <1 1 × 10^−6 cm/sec

Q: And the half-life (in vitro [3])?
A: < 10 min

Q: What about the Papp (in vitro [4]) of the same compound?
A: < 10 ×10⁻⁶ cm/s
